US20130281506A1, “COMBINATION OF A NON-STEROIDAL ANTI-INFLAMMATORY DRUG WITH AN ANTI-HISTAMINIC DRUG INTENDED FOR OPHTHALMIC USE” (ALLERGAN, INC., priority 2012, published 2013)
Counter-ions that a name gives are not always drawn.

Key:
[1] = test system: seasonal allergic conjunctivitis; assay: Randomized, multi-centric, open label clinical study: efficacy on signs and symptoms (itching, hyperemia, chemosis, mucous discharge); type: in vivo, human; conditions: for mean chemosis score / mean cilliary hyperemia score / mean conjunctival hyperemia score / mean episcleral hyperemia score / mean itching score: score 0-4
Text: A randomized, multi-centric geographically, open label study to compare the safety and efficacy of the combination of olopatadine hydrochloride 0.1% and ketorolac tromethamine 0.4% w/v ophthalmic solution with olopatadine hydrochloride 0.1% w/v used twice daily for three weeks in adult patients with seasonal allergic conjunctivitis, was completed. The primary objective of this randomized, multi-centric geographically diverse study was to compare the safety and efficacy of the combination of olopatadine and ketorolac with olopatadine in seasonal allergic conjunctivitis. A combination of olopatadine hydrochloride 0.1% w/v and ketorolac tromethamine 0.4% w/v was compared with olopatadine hydrochloride 0.1% w/v alone in the treatment of patients with seasonal allergic conjunctivitis. The test drug was the combination of olopatadine hydrochloride with ketorolac tromethamine compared to olopatadine hydrochloride 0.1% w/v, as three commercially available brands on the market: Winolap®, Opat® and Olo®. These three commercially available brands, as the comparator drug, were provided to the investigators. Any of the three brands of the comparator drug were prescribed by the investigator to the patients per their choice of availability and cost. The patients administered one drop twice daily in each eye for twenty-one days during three weeks. The patients received study medications as well as comparator drug for the entire period. There were five scheduled visits, with screening periods of thirty days and a treatment period of twenty-one days as per protocol. At the end of each visit physicians also rated tolerance and the patient rated acceptability. The efficacy parameters like itching, hyperemia (cilliary, conjunctival, episcleral), chemosis and mucus discharge were compared between groups and scored. The efficacy of the medications was evaluated by comparing the reduction in efficacy parameters, signs and symptoms of allergic conjunctivitis between the treatment groups, based on the twenty-one day period. The efficacy of the study medications was evaluated by comparing the reduction in signs and symptoms of allergic conjunctivitis between the treatment groups. Reduction in the signs and symptoms of allergic conjunctivitis was based on evaluation of efficacy parameters till the end of twenty-one days. For the improvement of allergic conjunctivitis, symptoms like itching, hyperemia, chemosis and mucous discharge were used. The symptoms of allergic conjunctivitis like itching, hyperemia and chemosis were scored as 0, 1, 2, 3 and 4 and mucous discharge was graded as absent or present. [table] Interpretation: •Minimum score: 0; •Maximum score: 4; the higher the score the more severe will be the symptoms of allergic conjunctivitis. In the report, each symptom is graded based on the severity. Efficacy evaluation has been done for first 100 completed cases. The efficacy parameters like itching, hyperemia (cilliary, conjunctival, episcleral), chemosis and mucus discharge were compared between groups.

[2] = test system: adult patients with seasonal allergic conjunctivitis; assay: Same clinical study: safety, tolerability and acceptability; type: in vivo, human; conditions: mild transient, no treatment required; observed immediately after instillation of eye drop
Text: The patients administered one drop twice daily in each eye for twenty-one days during three weeks. The patients received study medications as well as comparator drug for the entire period. There were five scheduled visits, with screening periods of thirty days and a treatment period of twenty-one days as per protocol. At the end of each visit physicians also rated tolerance and the patient rated acceptability.
At the end of the each visit physicians rated tolerance as Excellent (No adverse drug reactions), Good (Mild adverse reaction not requiring other treatment or necessitating drug withdrawal), Fair (Adverse reactions requiring treatment without hospitalization or necessitating drug withdrawal and Poor (Severe or serious reaction requiring hospitalization and withdrawal of drug) and the patient rated acceptability as Good (No untoward incidence), Fair (Mild adverse reaction not interfering day to day activities) and Poor (Adverse reactions affecting regular day to day activities).
The safety of the combination of olopatadine-ketorolac was compared with olopatadin. The safety assessment parameters included the number of patients having adverse events, the types of adverse events, and the number of unexpected, severe or serious adverse events in the two arms.

[3] = test system: seasonal allergic conjunctivitis and rhinoconjunctivitis; conditions: fourth week of treatment; p=0.03; cited from earlier work
[4] = visit 3, no statistically significant difference

**Q.** With `CN(C)CC/C=C1/c2ccccc2COc2ccc(CC(=O)O)cc21` [olopatadine, olopatadine hydrochloride] as the compound, how does the mean chemosis score ([1]; baseline) read?
**A.** Its mean chemosis score is 1.5±0.99.

**Q.** And the “mean cilliary hyperemia score” value ([1]; baseline)?
**A.** The value was 0.94±0.91.

**Q.** And the “mean conjunctival hyperemia score” value ([1]; baseline)?
**A.** Its value is 2.28±0.83.

**Q.** And the “mean episcleral hyperemia score” value ([1]; baseline)?
**A.** The value was 0.84±0.79.

**Q.** What about the mean itching score ([1]; baseline, one drop twice daily in each eye) of the same compound?
**A.** The mean itching score was 3±0.67.

**Q.** What about the “complaints of mucus discharge” value ([1]; final scheduled visit) of the same compound?
**A.** The value was “all the enrolled patients were free from the complaints of mucus discharge”.

**Q.** And the mean chemosis score ([1]; visit 2)?
**A.** Its mean chemosis score is 1.46±0.95.

**Q.** And the “mean cilliary hyperemia score” value ([1]; visit 2)?
**A.** Its value is 0.94±0.91.

**Q.** What about the “mean conjunctival hyperemia score” value ([1]; visit 2) of the same compound?
**A.** The value was 2.2±0.84.

**Q.** And the “mean episcleral hyperemia score” value ([1]; visit 2)?
**A.** Its value is 0.84±0.79.

**Q.** What about the mean itching score ([1]; visit 3 (first week), p=0.012 between groups) of the same compound?
**A.** The mean itching score was 2±0.60.

**Q.** What about the “mean cilliary hyperemia score” value ([1]; visit 3) of the same compound?
**A.** Its value is 0.62±0.66.

**Q.** And the mean chemosis score [1, 4]?
**A.** Its mean chemosis score is 0.92±0.72.

**Q.** And the “mean conjunctival hyperemia score” value [1, 4]?
**A.** The value was 1.38±0.86.

**Q.** And the “mean episcleral hyperemia score” value ([1]; visit 3, p=0.43 printed)?
**A.** Its value is 0.62±0.63.

**Q.** What about the mean itching score ([1]; visit 4 (second week), p=0.009 between groups) of the same compound?
**A.** Its mean itching score is 1.28±0.67.

**Q.** And the “mean conjunctival hyperemia score” value ([1]; visit 4 (second week), p=0.02 between groups)?
**A.** Its value is 0.8±0.60.

**Q.** What about the mean chemosis score ([1]; visit 4 (second week), p=0.029 between groups) of the same compound?
**A.** The mean chemosis score was 0.54±0.57.

**Q.** And the “mean episcleral hyperemia score” value ([1]; visit 4)?
**A.** The value was 0.36±0.56.

**Q.** And the “mean cilliary hyperemia score” value ([1]; visit 4, p=0.06 between groups)?
**A.** The value was 0.28±0.49.

**Q.** What about the mean chemosis score ([1]; visit 5 (third week), p=0.00004 between groups) of the same compound?
**A.** Its mean chemosis score is 0.3±0.52.

**Q.** What about the mean itching score ([1]; visit 5 (third week), p=0.00009 between groups) of the same compound?
**A.** Its mean itching score is 0.78±0.58.

**Q.** What about the “mean conjunctival hyperemia score” value ([1]; visit 5 (third week), p=0.0003 between groups) of the same compound?
**A.** Its value is 0.5±0.54.

**Q.** What about the “mean episcleral hyperemia score” value ([1]; visit 5) of the same compound?
**A.** Its value is 0.18±0.38.

**Q.** What about the “mean cilliary hyperemia score” value ([1]; visit 5, p=0.52 between groups) of the same compound?
**A.** Its value is 0.08±0.34.

**Q.** And the “number of patients experiencing an adverse event” value [2]?
**A.** Its value is “three”.

**Q.** What about the “chemosis compared to placebo” value [3] of the same compound?
**A.** Its value is “significant decrease”.
